Test system: mixed suspension (Group 5) of the four test microbe groups
Assay: Koko test (pack preservation, repeated inoculation challenge) of aqueous working solutions in Ringer's solution
Type: cell-based
Conditions: for Koko results: microbial growth of streaks, inoculation cycle 1: inoculation cycle 1; Ringer's solution as product; use concentration 0.5% for 1), 0.6% for 2), 2.0% for 3) and 4); for Koko results: microbial growth of streaks, inoculation cycle 2: inoculation cycle 2; Ringer's solution as product; use concentration 0.5% for 1), 0.6% for 2), 2.0% for 3) and 4); for Koko results: microbial growth of streaks, inoculation cycle 3: inoculation cycle 3; Ringer's solution as product; use concentration 0.5% for 1), 0.6% for 2), 2.0% for 3) and 4); for Koko results: microbial growth of streaks, inoculation cycle 4: inoculation cycle 4; Ringer's solution as product; use concentration 0.5% for 1), 0.6% for 2), 2.0% for 3) and 4); for Koko results: microbial growth of streaks, inoculation cycle 5: inoculation cycle 5; Ringer's solution as product; use concentration 0.5% for 1), 0.6% for 2), 2.0% for 3) and 4); for Koko results: microbial growth of streaks, inoculation cycle 6: inoculation cycle 6; Ringer's solution as product; use concentration 0.5% for 1), 0.6% for 2), 2.0% for 3) and 4)
Protocol: Unless expressly stated otherwise, all of the percentages are percentages by weight. Aqueous working solutions were investigated using Ringer's solution as product in the Koko test.
Using the described method, the effectiveness of chemical preservatives (stabilizer compositions) is tested with regard to the pack preservation for cosmetic formulations. For this purpose, the compositions to be investigated are added in varying concentrations to the unstabilized samples in various experimental batches. A continuous microbial burden is achieved by periodically inoculating the experimental batches. In parallel to the inoculation, streaks of each of the individual batches are in each case made immediately beforehand. Assessment is made by reference to the microbial growth of the streaks.
• CSA (casein peptone soya flour peptone agar) • SA (Sabouraud dextrose agar) • SA slant tube • CSA+TLSH (No. 4) • SA-TLSH (No. 10) • NaCl (physiological sodium chloride solution, […]) • TLSH (disinhibiting medium for bacteria=Tween 80+lecithin+saponin+histidine)
The test microbe used was the mixed suspension (Group 5) of the following four test microbe groups.
Cultivation of the Test Microbes • Bacteria: streaking using a sterile glass rod on CS agar • Yeasts: streaking using a sterile glass rod on SA agar • Fungi: Aspergillus niger is transferred to 4 SA slant tubes • Penicillium funiculosum is transferred to SA agar plates
All of the test microbes are incubated for one week at 25° C.±2° C. The test microbes are replaced at intervals of 3 to 4 months.
The bacteria are rinsed off with 5 ml of NaCl solution in each case, filtered through a glass funnel containing glass wool into a 100 ml measuring cylinder and made up to 100 ml with NaCl. The bacterial suspensions have a titre of about 10^9 CFU/ml.
Three Aspergillus niger slant tubes are each shaken with 3 ml of NaCl solution on a Heldolph stirrer and introduced through a glass funnel containing glass wool. The yeast Candida albicans is rinsed off with 5 ml of NaCl and likewise poured through the glass funnel. 5 ml of a Penicillium funiculosum suspension are added to this mixture and made up to 100 ml with NaCl. The fungal suspension has a titre of about 10^5-9 CFU/ml.
The inoculation solution actually used is prepared as described above (Groups 1 to 4). After rinsing off, these are mixed and then made up to 100 ml with NaCl.
The microbial suspension was transferred to sterile glass-stoppered bottles containing glass beads and shaken for 5 min at a shaking frequency (to-and-fro movement) of 200 units/min. The microbial content of the mixed suspension is 10^9 CFU/ml. The suspension should be used on the day of preparation, but can also be used after 24 hours upon storage in a refrigerator.
In separate batches, 25 g of the cosmetic to be tested are mixed in each case with the compositions to be investigated in varying concentrations. The growth control used in each case is an unstabilized product sample. The test batches are streaked onto CSA/TLSH and SA/TLSH once per week following thorough stirring using a sterile glass rod, the first streaking being carried out directly prior to reinoculation. All of the samples are inoculated with 0.1 ml of the respective microbial suspension and thoroughly stirred.
The microbial growth of the streaks is assessed after incubation for three days at 25° C.±2° C. To be on the safe side, negative streaks are observed for a further two days and reassessed. The stabilizing action of the individual product concentration is assessed in a semiqualitative method by means of the growth of the individual streaks.
The test is usually carried out over six inoculation cycles and terminated after massive growth on two occasions.
A composition is considered good if it exists under the laboratory conditions given above for a period of six weeks without microbial attack of the sample batches, i.e. even after the sixth inoculation, no microbial growth can be detected.

O=C([O-])CNCO.[Na+] [1), sodium hydroxymethyl-glycinate]
+Y: Koko results: microbial growth of streaks, inoculation cycle 1 | Koko results: microbial growth of streaks, inoculation cycle 2 | Koko results: microbial growth of streaks, inoculation cycle 3 | Koko results: microbial growth of streaks, inoculation cycle 4 | Koko results: microbial growth of streaks, inoculation cycle 5 | Koko results: microbial growth of streaks, inoculation cycle 6

CC1(C)C(=O)N(CO)C(=O)N1CO [2), dimethyldimethylolhydantoin]
++B: Koko results: microbial growth of streaks, inoculation cycle 2 | Koko results: microbial growth of streaks, inoculation cycle 3 | Koko results: microbial growth of streaks, inoculation cycle 4 | Koko results: microbial growth of streaks, inoculation cycle 5 | Koko results: microbial growth of streaks, inoculation cycle 6
+B: Koko results: microbial growth of streaks, inoculation cycle 1

From patent publication US8841349B2, “Stabilize compositions based on monoalkyl glycerol ethers and aromatic alcohols” (Air Liquide Sante (International), priority 2003, dated 2014)
